{"source": "patent US20030124643A1", "about": "“Method and kit forrapid concurrent identification and antimicrobial susceptibility testing of microorganisms from broth culture” (priority 2001, published 2003)", "key": {"[1]": {"system": "E. coli", "experiment": "Kit plate disk-quarter diffusion AST, mixed culture", "assay_type": "cell-based", "details": "mixed culture with Staph. aureus, Cephalothin chamber 70', region confirmed by gram stain, FIG. 37", "text": "(§1) FIGS. 37A to 37C illustrates the growth of two microorganisms, Staph. aureus and E. coli, on the same preferred embodiment kit plate. FIGS. 37B and 37C are two different views of an enlargement of the AST test chambers (67′-70′ and 72′-75′). FIG. 37B viewed with back lighting. FIG. 37C viewed with front lighting. Two AST test chambers are featured in these figures: Mueller Hinton agar plus antimicrobial Cephalothin chamber 70′ and Mueller Hinton agar plus antimicrobial Enrofloxicin chamber 73′. Two margins are observable in each chamber: E coli & cephalothin margin 180 and Staph. aureus & cephalothin margin 181 for Cephalothin chamber 70′; and Staph. aureus & Enrofloxicin margin 182 and E. coli & Enrofloxicin margin 183 for Enrofloxicin chamber 73′. The region 176A is between the E. coli margin 180 and Staph. aureus margin 181 in Cephalothin chamber 70′. The region 178A is between the Staph. aureus margin 182 and the E. coli margin 183 in Enrofloxicin chamber 73′. Illustrated in FIG. 38 are two gram stains 176B and 178B of a sample from regions 176A and 178A respectively.\n(§2) […] of this dilution is added per chamber. FIG. 17 illustrates the first chamber of the top two rows inoculated using dilution 140. Eighty micro liters of dilution 140 is added per chamber to the ten upper test chambers. […]"}, "[2]": {"system": "Staph. aureus", "experiment": "Kit plate disk-quarter diffusion AST, mixed culture", "assay_type": "cell-based", "details": "mixed culture with E. coli, Enrofloxicin chamber 73', region confirmed by gram stain, FIG. 37", "text": "as §1, §2"}}}
{"smiles": "CC(=O)OCC1=C(C(=O)O)N2C(=O)[C@@H](NC(=O)Cc3cccs3)[C@H]2SC1", "note": "[Cephalothin]", "values": [{"measurement": "AST result in growth region 176A, between margins 180 and 181", "setting": "[1]", "result": "resistance"}]}
{"smiles": "CCN1CCN(c2cc3c(cc2F)c(=O)c(C(=O)O)cn3C2CC2)CC1", "note": "[Enrofloxicin]", "values": [{"measurement": "AST result in growth region 178A, between margins 182 and 183", "setting": "[2]", "result": "resistance"}]}
